Laboratory results published in paper PMC9845116 (Saudi Pharmaceutical Journal : SPJ, 2022).

Tests used:
Type in all cases: cell-based
A549 = test: MTT cell viability assay, A549; settings: Homo sapiens, A549, 48 h, read-out: IC50(μM) A549
Hela = test: MTT cell viability assay, Hela; settings: Homo sapiens, HeLa, 48 h, read-out: IC50(μM) Hela, MTT, 48 h, Hela
HepG2 = test: MTT cell viability assay, HepG2; settings: Homo sapiens, HepG2, 48 h, read-out: IC50(μM) HepG2
MCF-7 = test: MTT cell viability assay, MCF-7; settings: Homo sapiens, MCF7, 48 h, read-out: IC50(μM) MCF-7, MTT, 48 h, MCF-7

Compound | IC50 (A549) | IC50 (Hela) | IC50 (HepG2) | IC50 (MCF-7)
O=c1[nH]cc(F)c(=O)[nH]1 [5-Fu, 5-fluorouracil, reference compound] | 43.5 ± 1.22 µM | 43.8 ± 1.53 µM | 45.4 ± 1.35 µM | 55.2 ± 1.92 µM
COc1cc(OC)c(C(=O)/C=C/c2c(OC)cc(OC)c(C)c2OC)c(OC)c1 [A6, (E)-3-(2,4,6-trimethoxy-3-methylphenyl)-1-(2,4,6-trimethoxyphenyl)prop-2-en-1-one] | 63.3 ± 1.41 µM | > 100 µM | > 100 µM | > 100 µM
COc1cc(OC)c(C(=O)/C=C/c2ccccc2)c(OC)c1 [A7, (E)-3-phenyl-1-(2,4,6-trimethoxyphenyl)prop-2-en-1-one] | 59.4 ± 1.72 µM | 46.5 ± 1.33 µM | 47.1 ± 1.42 µM | 57.8 ± 1.45 µM
COc1cc(OC)c(C(=O)/C=C/c2ccccn2)c(OC)c1 [B1, (E)-3-(pyridin-2-yl)-1-(2,4,6-trimethoxyphenyl)prop-2-en-1-one] | 10.6 ± 0.38 µM | 11.9 ± 0.44 µM | 10.8 ± 0.39 µM | 8.74 ± 0.63 µM
COc1cc(OC)c(C(=O)/C=C/c2cccc(Br)n2)c(OC)c1 [B2, (E)-3-(6-bromopyridin-2-yl)-1-(2,4,6-trimethoxyphenyl)prop-2-en-1-one] | 9.36 ± 0.72 µM | 6.48 ± 0.33 µM | 7.12 ± 0.42 µM | 7.83 ± 0.45 µM
COc1cc(OC)c(C(=O)/C=C/c2ccc(Br)cc2)c(OC)c1 [B4, (E)-3-(4-bromophenyl)-1-(2,4,6-trimethoxyphenyl)prop-2-en-1-one] | 19.8 ± 0.98 µM | 11.8 ± 0.86 µM | 13 ± 0.74 µM | 12.8 ± 0.64 µM
COc1cc(OC)c(C(=O)/C=C/c2ccsc2)c(OC)c1 [B5, (E)-3-(thiophen-3-yl)-1-(2,4,6-trimethoxyphenyl)prop-2-en-1-one] | 46.9 ± 1.15 µM | 37.2 ± 1.22 µM | 19.9 ± 1.31 µM | 35.8 ± 1.35 µM
COc1cc(OC)c(C(=O)/C=C/C2=CSC(Br)=CC2)c(OC)c1 [B6, (E)-3-(6-bromo-4H-thiopyran-3-yl)-1-(2,4,6-trimethoxyphenyl)prop-2-en-1-one] | 31.3 ± 0.63 µM | 18.9 ± 0.73 µM | 19.5 ± 0.59 µM | 26.3 ± 0.94 µM
COc1cc(OC)c(C(=O)/C=C/c2ccoc2)c(OC)c1 [B7, (E)-3-(furan-3-yl)-1-(2,4,6-trimethoxyphenyl)prop-2-en-1-one] | 47.4 ± 2.12 µM | 81.3 ± 2.44 µM | 61.4 ± 1.34 µM | 82.9 ± 2.65 µM
COc1cc(OC)c(C(=O)/C=C/c2coc(Br)c2)c(OC)c1 [B8, (E)-3-(5-bromofuran-3-yl)-1-(2,4,6-trimethoxyphenyl)prop-2-en-1-one] | > 100 µM | 49.8 ± 1.43 µM | 20.4 ± 1.52 µM | 48.8 ± 1.45 µM
COc1cc(OC)c(C(=O)/C=C/c2cnc3ccccc3c2)c(OC)c1 [B10, (E)-3-(quinolin-3-yl)-1-(2,4,6-trimethoxyphenyl)prop-2-en-1-one] | 15.5 ± 0.74 µM | 13.6 ± 0.83 µM | 8.92 ± 0.68 µM | 10.7 ± 0.62 µM
COc1cc(OC)c(C(=O)/C=C/c2cn(C)c3ccccc23)c(OC)c1 [B11, (E)-3-(1-methyl-1H-indol-3-yl)-1-(2,4,6-trimethoxyphenyl)prop-2-en-1-one] | > 100 µM | > 100 µM | > 100 µM | > 100 µM
COc1cc(OC)c(C(=O)/C=C/c2ccc(-c3ccccc3)cc2)c(OC)c1 [B12, (E)-3-([1,1′-biphenyl]-4-yl)-1-(2,4,6-trimethoxyphenyl)prop-2-en-1-one] | 44.5 ± 1.05 µM | 46.3 ± 1.07 µM | 38.1 ± 1.45 µM | 51.6 ± 1.23 µM
COc1cc(OC)c(C(=O)/C=C/c2ccc(-c3ccc(F)cc3)cc2)c(OC)c1 [B13, (E)-3-(4′-fluoro-[1,1′-biphenyl]-4-yl)-1-(2,4,6-trimethoxyphenyl)prop-2-en-1-one] | 40.6 ± 1.51 µM | 30.5 ± 0.89 µM | 25.6 ± 0.77 µM | 35.3 ± 1.14 µM
COc1cc(OC)c(C(=O)/C=C/c2cc3ccccc3[nH]c2=O)c(OC)c1 [B14, (E)-3-(3-oxo-3-(2,4,6-trimethoxyphenyl)prop-1-en-1-yl)quinolin-2(1H)-one] | 10.7 ± 0.74 µM | 35 ± 0.83 µM | 17.6 ± 0.74 µM | 7.92 ± 0.59 µM
COc1cc(OC)c(C(=O)/C=C/c2cc3cc(C)ccc3[nH]c2=O)c(OC)c1 [B15, (E)-6-methyl-3-(3-oxo-3-(2,4,6-trimethoxyphenyl)prop-1-en-1-yl)quinolin-2(1H)-one] | 20.4 ± 0.67 µM | 4.91 ± 0.3 µM | 18 ± 0.62 µM | 16 ± 0.56 µM
COc1cc(OC)c(C(=O)/C=C/c2cc3cc(F)ccc3[nH]c2=O)c(OC)c1 [B16, (E)-6-fluoro-3-(3-oxo-3-(2,4,6-trimethoxyphenyl)prop-1-en-1-yl)quinolin-2(1H)-one] | 18.4 ± 0.65 µM | 18.1 ± 1.04 µM | 15.1 ± 0.62 µM | 12.6 ± 0.73 µM

The next lines start with the values.

IC50 (A549) | IC50 (Hela) | IC50 (HepG2) | IC50 (MCF-7) | Compound
> 100 µM | 45.5 ± 1.59 µM | 39.3 ± 1.55 µM | > 100 µM | COc1cc(OC)c(C(=O)/C=C/c2ccc(OCC3CC3)cc2)c(OC)c1 [C1, (E)-3-(4-(cyclopropylmethoxy)phenyl)-1-(2,4,6-trimethoxyphenyl)prop-2-en-1-one]
73.6 ± 1.17 µM | 22.6 ± 1.11 µM | > 100 µM | > 100 µM | COc1cc(OC)c(C(=O)/C=C/c2ccc(OCC3CCCC3)cc2)c(OC)c1 [C2, (E)-3-(4-(cyclopentylmethoxy)phenyl)-1-(2,4,6-trimethoxyphenyl)prop-2-en-1-one]
> 100 µM | > 100 µM | > 100 µM | > 100 µM | COc1cc(OC)c(C(=O)/C=C/c2ccc(OCC3CCCCC3)cc2)c(OC)c1 [C3, (E)-3-(4-(cyclohexylmethoxy)phenyl)-1-(2,4,6-trimethoxyphenyl)prop-2-en-1-one]
> 100 µM | > 100 µM | > 100 µM | > 100 µM | COc1cc(OC)c(C(=O)/C=C/c2ccc(OCc3ccccc3)cc2)c(OC)c1 [C4, (E)-3-(4-(benzyloxy)phenyl)-1-(2,4,6-trimethoxyphenyl)prop-2-en-1-one]
> 100 µM | > 100 µM | > 100 µM | > 100 µM | COc1cc(OC)c(C(=O)/C=C/c2ccc(OCc3ccc(Br)cc3)cc2)c(OC)c1 [C5, (E)-3-(4-((4-bromobenzyl)oxy)phenyl)-1-(2,4,6-trimethoxyphenyl)prop-2-en-1-one]
74.2 ± 1.84 µM | > 100 µM | > 100 µM | > 100 µM | COc1cc(OC)c(C(=O)/C=C/c2ccc(OCc3ccccn3)cc2)c(OC)c1 [C6, (E)-3-(4-(pyridin-2-ylmethoxy)phenyl)-1-(2,4,6-trimethoxyphenyl)prop-2-en-1-one]
> 100 µM | 35 ± 1.17 µM | 51.1 ± 2.1 µM | 87.8 ± 2.7 µM | COc1cc(OC)c(C(=O)/C=C/c2ccc(OCc3ccsc3)cc2)c(OC)c1 [C7, (E)-3-(4-(thiophen-3-ylmethoxy)phenyl)-1-(2,4,6-trimethoxyphenyl)prop-2-en-1-one]
> 100 µM | > 100 µM | > 100 µM | > 100 µM | COc1cc(OC)c(C(=O)/C=C/c2ccc(OCc3ccc4ccccc4c3)cc2)c(OC)c1 [C8, (E)-3-(4-(naphthalen-2-ylmethoxy)phenyl)-1-(2,4,6-trimethoxyphenyl)prop-2-en-1-one]
